We go through one sequence from patent US20060275285A1, “Methods of inhibiting a GPCR” (Amgen Inc., priority 2005, published 2006).

Series [1] has as its system GPR23. The experiment in a line: GPR23-specific antisense oligos evaluated for activity in bEND cells. The format is cell-based. The note with it: bEND (murine brain endothelial) cells. The method, then: GPR23-specific antisense oligos were generated by Isis Pharmaceuticals (Carlsbad, Calif.) and were evaluated for activity in bEND (murine brain endothelial) cells. […] An oligo without homology to any known gene was provided as a control ([…] (SEQ ID NO:10)). For the studies, male C57 black 6 mice were fed a high fat diet for 12 weeks (from 3 weeks of age) and analyzed for parameters of diet induced obesity. Animals that show appropriate symptoms of diet induced obesity (e.g., hyperinsulemia and weight gain with no signs of illness) were divided into 5 groups (10 animals/group) and treated as described below: […]

Series [2] relates to GPR23 mRNA. Nature of the series: GPR23 mRNA quantitation by real time PCR in white adipose tissue of diet induced obese mice. The format is in vivo. The note with it: Groups 3 and 4 (25 and 50 mg/kg IP weekly for 7 weeks) vs Group 2. The method, then:
(§1) GPR23-specific antisense oligos were generated by Isis Pharmaceuticals (Carlsbad, Calif.) and were evaluated for activity in bEND (murine brain endothelial) cells. […] An oligo without homology to any known gene was provided as a control ([…] (SEQ ID NO:10)). For the studies, male C57 black 6 mice were fed a high fat diet for 12 weeks (from 3 weeks of age) and analyzed for parameters of diet induced obesity. Animals that show appropriate symptoms of diet induced obesity (e.g., hyperinsulemia and weight gain with no signs of illness) were divided into 5 groups (10 animals/group) and treated as described below:
(§2) Group 1 (saline treated control): saline IP injection weekly for 7 weeks;
(§3) Group 2 (universal oligo control): oligo IP injection 50 mg/kg body weight, weekly for 7 weeks;
(§4) Group 3 (GPR23 antisense oligo (ASO) treated): oligo IP injection, 25 mg/kg body weight, weekly for 7 weeks;
(§5) Group 4 (GPR23 ASO treated): oligo IP injection, 50 mg/kg body weight, weekly for 7 weeks; and
(§6) Group 5: (rosiglitizone treated control): 50 mg/kg body weight for 7 weeks.
Fed glucose measurements were made at the beginning, midpoint and endpoint of the study. […] At the end of the study, animals were sacrificed and tissue samples (liver, white adipose tissue, brown adipose tissue) were taken for histological evaluation and GPR23 mRNA quantitation. […]
For orientation: Real-time PCR tracks product formation cycle by cycle.

In series [3] the test system is male C57 black 6 mice fed a high fat diet (diet induced obesity). The experiment in a line: GPR23 antisense study in diet induced obesity mice (body composition, serum parameters, liver). The format is in vivo. As to conditions: for body weight: 50 mg/kg IP weekly for 7 weeks (Group 4) vs control animals. On the procedure:
as §1, §2, §3, §4, §5, §6
(§7) Fed glucose measurements were made at the beginning, midpoint and endpoint of the study. A fasting GTT measurement was done at the midpoint and endpoint of the study. Fed plasma samples were tested for insulin, total cholesterol, free fatty acids, triglycerides, and liver enzymes. At the end of the study, animals were sacrificed and tissue samples (liver, white adipose tissue, brown adipose tissue) were taken for histological evaluation and GPR23 mRNA quantitation.

Series [4] has as its system fatty acid synthase mRNA. The experiment in a line: Gene profiling by real time PCR of adipose tissue: fatty acid synthase. As to conditions: white adipose tissue; Groups 3 and 4 (25 and 50 mg/kg). The format is in vivo, mice. On the procedure:
as §7
(§8) Gene profiling experiments were performed to provide additional insight into the mechanism of action associated with GPR23.

Series [5] deals with hormone sensitive lipase. The experiment in a line: Gene profiling by real time PCR of adipose tissue: hormone sensitive lipase. It is filed as in vivo, mice. The note with it: Groups 3 and 4 (25 and 50 mg/kg). On the procedure:
as §7, §8

Series [6] has as its system PPAR-gamma. The experiment in a line: Gene profiling by real time PCR of adipose tissue: PPAR-gamma. The format is in vivo, mice. As to conditions: Groups 3 and 4 (25 and 50 mg/kg). On the procedure:
as §7, §8

Where [7] appears, read: 50 mg/kg IP weekly for 7 weeks (Group 4) vs control oligo (Group 2).
Where [8] appears, read: Groups 3 and 4 (25 and 50 mg/kg), not statistically significant, data not shown.

For the sequence “CTCAGTATCATTAGCTTCAA (listed as DNA, chemistry not given here; listed as Mus musculus) [GPR23 antisense oligo]”, in series [1], the “expression of GPR23 in cultured cells” value is on record as “markedly reduced”. Also, the “reduction of GPR23 mRNA levels relative to control oligo treated animals” value in series [2] was approximately 70%. In series [3], the body weight result was “weighed slightly less than control animals”. Moreover, in series [3] (listed as antisense oligo), the body weight result is “weighed less than control animals”. For the same sequence, in series [3] (setting [7]), the fat mass entry was “statistically significant decrease” and the lean mass entry was “statistically significant increase”. Besides, the liver fat scores result in series [3] (Groups 3 and 4 (25 and 50 mg/kg)) was “lower”. For the same sequence, the “liver enzymes (a parameter of toxicity)” value in series [3] (Groups 3 and 4 (25 and 50 mg/kg) compared to control groups (Groups 1 and 2)) is “not significantly different”. In series [3] (setting [8]), the “free fatty acid levels” value is “lower” and the triglyceride levels result is reported as “lower”. For the same sequence, the serum cholesterol levels entry in series [3] (both 25 mg/kg and 50 mg/kg doses (Groups 3 and 4), change from baseline at week 7, relative to controls) is “lowered relative to controls”. In addition, in series [3] (fasting GTT, antisense oligo treatment), the glucose tolerance tests entry is given as “not affected”. Moreover, the “fatty acid synthase mRNA levels” value in series [4] is listed as “significantly reduced in a dose-dependent manner”. The “levels of hormone sensitive lipase” value in series [5] was “did not change significantly”. Also, the “levels of PPAR-gamma” value in series [6] is recorded as “did not change significantly”.
